A value given as a limit tells only on which side of the number the result lay.

In data set [1] the test system is nonsorted control HCT 116 (wt-p53) cells. Put plainly: 5-FU cell death assay, FITC Annexin V and PI flow cytometry. The data set is classed as cell-based, human. As to conditions: lethal dose of 5-FU (100 μM) for 48 h. The procedure: (§1) Colon cancer stem-like cells were transfected with 100 nM of LNA anti-miR-140 using Lipofectamine 2000 after FACS-sorting. […] The dead cells were determined by the fluorescein isothiocyanate (FITC) Annexin V and PI detection kit (BD Biosciences, Pharmingen, San Diego, Calif., USA). Briefly, cells were harvested and resuspended in 1× Annexin V binding and stained with Annexin V (5 μl) and PI (5 μl) for 15 min at room temperature in the dark. After additional 400 μl of binding buffer, cells were analyzed by flow cytometry. […]
A general note: A flow cytometer gives signals particle by particle.

The subject of data set [2] is CD133+hi/CD44+hi colon cancer stem-like cells. Described as above. As to conditions: FACS-sorted CD133+hi/CD44+hi cells, lethal dose of 5-FU (100 μM) for 48 h. The data set is classed as cell-based. The procedure:
HCT 116 (wt-p53) cells were sorted with multiparametric flow cytometry with BD FACS Aria cell sorter (Becton Dickinson, CA) at sterile conditions. Cells were prepared as described above and labeled with one or several markers conjugated anti-human CD133-PE (clone 105902; R&D Systems, MN); CD44-FITC (clone F10-44-2, R&D Systems, MN). Antibodies were diluted in buffer containing 5% BSA, 1 mM EDTA and 15-20% blocking reagent (Miltenyi Biotec, CA) to inhibit unspecific binding to non-target cells. After 15 min incubation at 4° C., stained cells were washed, resuspended in 500 μl of MACS buffer and sorted.
as §1

Data set [3] concerns HCT 116 (wt-p53) cells. In words: Chemosensitivity assay to 5-fluorouracil (WST-1). The data set is classed as cell-based, human. As to conditions: 100 nM transfected, 5-FU 2 to 100 μM for 72 h, vs miR control. The procedure: HCT 116 (wt-p53) cells were replated in 96-well plates at 2×10^3 cells per well in triplicate after transfected with miR-140, miR control or siRNA against HDAC4 in 100 μl of medium. After 24 h, 5-FU (ranged from 2 to 100 μM) was added and incubated for 72 h. WST-1 (10 μl) was added to each well. After 1 h incubation, absorbance was measured. Nonspecific miR was used as the negative control.
In general terms: Tetrazolium assays rely on reduction of a dye to a coloured formazan, in cell work by metabolically active cells.

Data set [4] concerns HCT 116 (null-p53) cells. In words: Cell cycle analysis by flow cytometry. Type of data set: cell-based, human. The conditions noted are these: 100 nM, 36 h after transfection. As to the method:
(§2) Cells were transfected with miR-140 and miR control described as above. At 36 h after transfection, cells were harvested and resuspended at 0.5-1×10^5 cells/ml in modified Krishan buffer (He, 2007; Tarasov, 2007), containing 0.1% sodium citrate and 0.3% NP-40 and kept at 4° C. Before being analyzed by flow cytometry, cells were treated with 0.02 mg/ml RNase H and stained with 0.05 mg/ml propidium iodide (Sigma).

Data set [5] deals with HCT 116 (wt-p53) cells. In words: Cell cycle analysis by flow cytometry. The data set is classed as cell-based, human. As to conditions: 100 nM, 36 h after transfection, vs miR control. As to the method: as §2
Data set [6] concerns HDAC4 protein. In words: HDAC4 protein expression by Western immunoblot after transfection. The conditions noted are these: U-2 OS (wt-p53) and HCT 116 (wt-p53) cells, 100 nM, 48 h after transfection. The data set is classed as cell-based, human. The procedure: (§3) Cells were plated in six-well plates at a density of 2×10^5 cells/well. The next day, cells were transfected with 100 nM of miR-140 precursor or non specific miR control (Ambion, Inc.) with Oligofectamine (Invitrogen Inc.) based on the manufacturer's instructions. Positive control siRNA specific against HDAC4 (ON-TARGET plus SMARTpool L-003497-00-0010, human HDAC4, NM 006037) was purchased from Dharmacon and transfected with Oligofectamine according to the manufacturer's protocols at a final concentration of 100 nM.
Forty-eight hours after transfection with miR-140 or miR control, cells were harvested and lysed in 1×RIPA buffer (Sigma) supplied with 100 uM PMSF (sigma) and proteinase inhibitor cocktail (Sigma). Equal amounts of protein were resolved by a 8% SDS-PAGE gels using the method of Laemmli (Laemmli, 1970), and transferred to polyvinylidene fluoride membranes (BIO-RAD Laboratories). The membranes were then blocked by 5% nonfat milk in TBST (Tris-buffered saline and 1% Tween-20) at room temperature for 1 h. The primary antibodies used for the analysis included goat anti-HDAC4 polyclonal Ab (1:1000, N-18), mouse anti-p53 mAb (1:1000, DO-1), mouse anti-p21 mAb(1:1000, F-5), mouse anti-tubulin mAb (1:1000, TU-02), all from Santa Cruz Biotechnology. […]

The subject of data set [7] is p53. In words: p53 expression by Western immunoblot. Type of data set: cell-based. The conditions noted are these: U-2 OS (wt-p53) and HCT 116 (wt-p53) cells, 48 h after transfection. As to the method: (§4) Forty-eight hours after transfection with miR-140 or miR control, cells were harvested and lysed in 1×RIPA buffer (Sigma) supplied with 100 uM PMSF (sigma) and proteinase inhibitor cocktail (Sigma). Equal amounts of protein were resolved by a 8% SDS-PAGE gels using the method of Laemmli (Laemmli, 1970), and transferred to polyvinylidene fluoride membranes (BIO-RAD Laboratories). The membranes were then blocked by 5% nonfat milk in TBST (Tris-buffered saline and 1% Tween-20) at room temperature for 1 h. The primary antibodies used for the analysis included goat anti-HDAC4 polyclonal Ab (1:1000, N-18), mouse anti-p53 mAb (1:1000, DO-1), mouse anti-p21 mAb(1:1000, F-5), mouse anti-tubulin mAb (1:1000, TU-02), all from Santa Cruz Biotechnology. Horseradish peroxidase-conjugated antibodies against mouse or goat (1:1000, Santa Cruz Biotechnology) were used as the secondary antibodies. Protein bands were visualized with a chemiluminescence detection system using Super Signal substrate (Pierce).
(In general: Immunoblotting shows a protein as a band on a membrane.)

The test system of data set [8] is HCT 116 (wt-p53) cells. Put plainly: Chemosensitivity assay to methotrexate (WST-1). The data set is classed as cell-based, human. The conditions noted are these: 100 nM transfected, methotrexate 10-1000 nM for 72 h, vs miR control. The procedure:
U-2 OS and HCT 116 (wt-p53) cells were replated in 96-well plates at 2×10^3 cells/well in triplicate after transfected with miR-140, miR control, or siRNA against HDAC4 in 100 μl of medium. Twenty-four hours later, methotrexate (ranged from 10-1000 nM) was added and incubated for 72 h. Ten μl of WST-1 (Roche Applied Science) was added to each well. After 1 h incubation, absorbance was measured at 450 and 630 nm respectively. Non-specific miRNA was used as the negative control.

Data set [9] has as its system U-2 OS cells (wt-p53). In words: WST-1 cell proliferation assay after miR-140 transfection. Type of data set: cell-based. The conditions noted are these: U-2 OS (wt-p53), 100 nM transfected, day 5, n=6. The procedure:
as §3
(§5) Cells were plated in 96-well plates with 6 repeats at 2,000 cells/well after transfection with miR-140 or miR control. Cells were cultured for 24, 48, 72, 96 and 120 h. The absorbance at 450 and 630 nm was measured after incubation with 10 μl of WST-1 for 1 h.

The subject of data set [10] is MG63 cells (mut-p53). Described as above. The conditions noted are these: 100 nM transfected, day 5, n=6. Type of data set: cell-based. As to the method:
as §3, §5

In data set [11] the test system is p21. In words: p21 expression by Western immunoblot. The conditions noted are these: U-2 OS (wt-p53) and HCT 116 (wt-p53) cells, 48 h after transfection. Type of data set: cell-based. The procedure: as §4
In data set [12] the test system is HDAC4 mRNA. In words: HDAC4 mRNA expression by real time qRT-PCR. Type of data set: cell-based, human. As to conditions: U-2 OS (wt-p53) and HCT 116 (wt-p53) cells, 100 nM, 24 hrs, GAPDH normalized. The procedure: as §3
Total RNA, including miRNAs, was isolated from cell lines or clinical specimens by using TRIzol reagent (Invitrogen, Inc.) according to the manufacturer's instructions to determine whether the cells were transfected with miR control, miR-140 or siHDAC4 at a final concentration of 100 nM for 24 hrs before RNA isolation.
cDNA was synthesized with the High Capacity cDNA synthesis kit (Applied Biosystems) using 2 μg of total RNA as the template and 10× random primers. Real-time qPCR analysis was done on the experimental mRNAs. The PCR primers and probes for HDAC4, and the internal control gene GAPDH were purchased from Applied Biosystems. qRT-PCR was done on an ABI 7500HT instrument under the following conditions: 50° C., 2 min for one cycle; 95° C., 10 min; 95° C., 15 s; 60° C., 1 min for 40 cycles (n=3).

The test system of data set [13] is U-2 OS cells (wt-p53). Put plainly: Cell cycle analysis by flow cytometry. The conditions noted are these: U-2 OS (wt-p53), 100 nM, 36 h after transfection, vs miR control. The data set is classed as cell-based. As to the method: as §2
For data set [14], the system named is MG63 cells (mut-p53). Put plainly: Cell cycle analysis by flow cytometry. Type of data set: cell-based. As to conditions: 100 nM, 36 h after transfection. As to the method:
as §2

Data set [15] has as its system HCT 116 (null-p53) cells. In words: WST-1 cell proliferation assay after miR-140 transfection. Type of data set: cell-based, human. As to conditions: 100 nM transfected, day 5, n=6. As to the method:
as §3, §5

Data set [16] relates to HCT 116 (wt-p53) cells. The description is as above. The data set is classed as cell-based, human. The conditions noted are these: 100 nM transfected, day 5, n=6. The procedure: as §3, §5

Take `O=c1[nH]cc(F)c(=O)[nH]1` [5-FU, 5-fluorouracil]: the results for the cell death in data set [1] and in data set [2] were greater than 80% and “about 20%”, respectively.

Regarding “miR-140: miR-140 precursor (Ambion) transfected at 100 nM to overexpress human miR-140 (SEQ ID NO:1/2) (chain 1 AGUGGUUUUACCUAUGGUAG; chain 2 CAGUGGUUUUACCCUAUGGUAG; listed as RNA, chemistry not given here; listed as Homo sapiens)”, the “chemosensitivity to 5-fluorouracil of transfected cells” value in [3] is reported as “more resistant”. Besides, the “G1 and G2 arrest” value in [4] and in [14] was “has not been observed” each time. Moreover, the G1 arrest in [5] was found to be 3.33 fold; in data set [13], 1.76 fold. Also, the G2 arrest in data set [5] was 2.54 fold; in data set [13] it was 0.92 fold. Moreover, in data set [6], the HDAC4 protein expression result is “clearly decreased”. For the same compound, the p53 protein expression result in data set [7] is “increased”. Further, in data set [8], the “chemosensitivity to methotrexate of transfected cells” value was “more resistant”. The “suppression of cellular proliferation” value is listed as 64.05±4.01% in data set [9], 31.3±4.96% in [10], 22.42±1.88% in data set [15] and 81.4±3.75% in [16]. In data set [11], the p21 protein expression entry is given as “increased”. For the same compound, the “HDAC4 mRNA expression” value in [12] is given as “no change”.

The values above are taken from patent US20160024597A1, “miRNAs AS THERAPEUTIC TARGETS IN CANCER” (The Research Foundation For The State University Of New York, priority 2009, published 2016).
